The values below come from patent US12667545B2, “Lyophilized compositions of phenobarbital sodium salt” (Nivagen Pharmaceuticals, Inc., priority 2019, dated 2026).

For series [1] the following is noted: cited from earlier work.
The nature of series [2]: X-Ray Powder Diffraction (XRPD). The class given is physicochemical. As to conditions: FIGS. 5A-5D. How it is done: X-Ray Powder Diffraction. With reference to FIGS. 5A-5D, XRPD was performed using the Rigaku Smart-Lab X-ray diffraction system configured for reflection Bragg-Brentano geometry using a line source X-ray beam. The X-ray source is a Cu Long Fine Focus tube that was operated at 40 kV and 44 mA. That source provides an incident beam profile at the sample that changes from a narrow line at high angles to a broad rectangle at low angles. Beam conditioning slits were used on the line X-ray source to ensure that the maximum beam size is less than 10 mm both along the line and normal to the line. The Bragg-Brentano geometry is a para-focusing geometry controlled by passive divergence and receiving slits with the sample itself acting as the focusing component for the optics. The inherent resolution of Bragg-Brentano geometry is governed in part by the diffractometer radius and the width of the receiving slit used. Typically, the Rigaku Smart-Lab is operated to give peak widths of 0.1° 2θ or less. The axial divergence of the X-ray beam is controlled by 5.0-degree Soller slits in both the incident and diffracted beam paths. […] The samples were analyzed from 2 to 40° 2θ using a continuous scan of 6° 2θ per minute with an effective step size of 0.02° 2θ.

As to `CCC(C(=O)NC(N)=O)c1ccccc1` (stereo not drawn) [Pheneturide, phenylethylacetylurea], the liver enzyme induction entry in series [1] (Nayyar et al., 2012) is on record as “potent liver enzyme inducer”. The “serum calcium and folate” value in series [1] (patients treated with Pheneturide) is “low levels”. In the case of `CCC1(c2ccccc2)C(=O)N=C([O-])NC1=O.[Na+]` (stereo not drawn) [USP grade P API, sodium 5-ethyl-4,6-dioxo-5-phenyl-1H-pyrimidin-2-olate], the “solid form by XRPD” value in series [2] was “polymorphous”.
